{"source": "paper PMC8365604", "about": "(Journal of Medicinal Chemistry, 2021)", "note": "Structures can show the parent of a compound that is named as a salt.", "data": [{"assay": "physchem", "units": {"solubility": "µg/mL"}, "values": [{"smiles": "O=C(O)c1ccc2c3c1cccc3c(=O)n1c3ccccc3nc21", "note": "[STO-609, 7-oxo-7H-benzimidazo[2,1-a]benz[de]isoquinoline-3-carboxylic acid, reference compound]", "solubility": 60}, {"smiles": "O=C(O)c1ccc(-c2ccncn2)cc1C1CCCC1", "note": "[compound 56, 2-Cyclopentyl-4-(pyrimidin-4-yl)benzoic Acid]", "solubility": 10.6}, {"smiles": "O=C(O)c1ccc(-c2ccnc(Nc3ccccc3)n2)cc1C1CCCC1", "note": "[compound 62, 2-Cyclopentyl-4-(2-(phenylamino)pyrimidin-4-yl)benzoic Acid Hydrochloride]", "solubility": 19.4}]}]}
